Measurements from US8492376B2, “Heteroaryl-cyclohexyl-tetraazabenzo[e]azulenes” (Hoffmann-La Roche Inc., priority 2010, dated 2013).
Where a name gives a salt, the structure may show the parent alone.

What follows are compounds tested against T1, human V1a receptor (Homo sapiens, UniProt P37288) (assay: human V1a receptor binding studies (3H-Vasopressin, SPA beads)). Conditions: membranes from HEK293 cells transiently transfected with human V1a receptor, Ki calculated from IC50 by the Cheng-Prussoff equation, read-out: pKi (hV1a) (converted).
T1 construct: expressed in transfected cells; host or cells: HEK293 cells, transiently transfected; cell membranes
T1 sequence (P37288 whole entry): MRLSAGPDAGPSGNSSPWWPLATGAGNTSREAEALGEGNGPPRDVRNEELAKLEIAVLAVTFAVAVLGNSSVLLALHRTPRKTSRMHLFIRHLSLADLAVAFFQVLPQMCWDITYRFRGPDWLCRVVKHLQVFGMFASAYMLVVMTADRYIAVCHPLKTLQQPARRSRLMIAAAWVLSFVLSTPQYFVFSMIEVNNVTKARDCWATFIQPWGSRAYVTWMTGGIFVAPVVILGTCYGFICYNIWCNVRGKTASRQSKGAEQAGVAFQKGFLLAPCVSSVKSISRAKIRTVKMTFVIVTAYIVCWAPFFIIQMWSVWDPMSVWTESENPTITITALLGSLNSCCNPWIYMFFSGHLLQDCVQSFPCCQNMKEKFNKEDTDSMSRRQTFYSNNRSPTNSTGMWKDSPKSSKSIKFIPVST
Procedure: The human V1a receptor was cloned by RT-PCR from total human liver RNA. The coding sequence was subcloned in an expression vector after sequencing to confirm the identity of the amplified sequence. […] Cell membranes were prepared from HEK293 cells transiently transfected with the expression vector and grown in 20 liter fermenters with the following protocol.
50 g of cells are resuspended in 30 ml freshly prepared ice cold Lyses buffer (50 mM HEPES, 1 mM EDTA, 10 mM magnesium dichloride adjusted to pH=7.4+complete cocktail of protease inhibitor (Roche Diagnostics)). Homogenized with Polytron for 1 min and solicited on ice for 2×2 minutes at 80% intensity (Vibrate solicitor). The preparation is centrifuged 20 min at 500 g at 4° C., the pellet is discarded and the supernatant centrifuged 1 hour at 43′000 g at 4° C. (19′000 rpm). The pellet is resuspended in 12.5 ml Lyses buffer+12.5 ml sucrose 20% and homogenized using a Polytron for 1-2 min. The protein concentration is determined by the Bradford method and aliquots are stored at −80° C. until use. For binding studies 60 mg Yttrium silicate SPA beads (Habersham®) are mixed with an aliquot of membrane in binding buffer (50 mM Tris, 120 mM sodium chloride, 5 mM potassium chloride, 2 mM calcium dichloride, 10 mM magnesium dichloride) for 15 minutes with mixing. 50 μl of bead/membrane mixture is then added to each well of a 96 well plate, followed by 50 μl of 4 nM 3H-Vasopressin (American Radiolabeled Chemicals). For total binding measurement 100 μl of binding buffer are added to the respective wells, for non-specific binding 100 μl of 8.4 mM cold vasopressin and for compound testing 100 μl of a serial dilution of each compound in 2% dimethyl sulfoxide. The plate is incubated 1 h at room temperature, centrifuged 1 min at 1000 g and counted on a Packard Top-Count. Non-specific binding counts are subtracted from each well and data is normalized to the maximum specific binding set at 100%. To calculate an IC50 the curve is fitted using a non-linear regression model (XLfit) and the Ki is calculated using the Cheng-Prussoff equation.

In order of falling Ki:
1. Fc1cccnc1[C@H]1CC[C@@H](c2nnc3n2-c2ccc(Cl)cc2CNC3)CC1 [Example 46, cis-8-Chloro-1-[4-(3-fluoro-pyridin-2-yl)-cyclohexyl]-5,6-dihydro-4H-2,3,5,10b-tetraaza-benzo[e]azulene]  200 nM
2. Fc1ncccc1[C@H]1CC[C@H](c2nnc3n2-c2ccc(Cl)cc2CNC3)CC1 [Example 55, trans-8-Chloro-1-[4-(2-fluoro-pyridin-3-yl)-cyclohexyl]-5,6-dihydro-4H-2,3,5,10b-tetraaza-benzo[e]azulene]  69.2 nM
3. Cc1cc(C)nc([C@H]2CC[C@H](c3nnc4n3-c3ccc(Cl)cc3CNC4)CC2)n1 [Example 64, trans-8-Chloro-1-[4-(4,6-dimethyl-pyrimidin-2-yl)-cyclohexyl]-5,6-dihydro-4H-2,3,5,10b-tetraaza-benzo[e]azulene hydrochloride]  18.6 nM
4. Clc1ccc2c(c1)CNCc1nnc([C@H]3CC[C@H](c4cnccn4)CC3)n1-2 [Example 70, trans-8-Chloro-1-(4-pyrazin-2-yl-cyclohexyl)-5,6-dihydro-4H-2,3,5,10b-tetraaza-benzo[e]azulene]  15.1 nM
5. Cc1cncc([C@H]2CC[C@H](c3nnc4n3-c3ccc(Cl)cc3CN(C)C4)CC2)n1 [Example 74, trans-8-Chloro-5-methyl-1-[4-(6-methyl-pyrazin-2-yl)-cyclohexyl]-5,6-dihydro-4H-2,3,5,10b-tetraaza-benzo[e]azulene]  11.2 nM
6. Cc1nccnc1[C@H]1CC[C@H](c2nnc3n2-c2ccc(Cl)cc2CN(C)C3)CC1 [Example 77, trans-8-Chloro-5-methyl-1-[4-(3-methyl-pyrazin-2-yl)-cyclohexyl]-5,6-dihydro-4H-2,3,5,10b-tetraaza-benzo[e]azulene]  5.13 nM
7. COc1cccc([C@H]2CC[C@H](c3nnc4n3-c3ccc(Cl)cc3CN(C)C4)CC2)n1 [Example 15, trans-8-Chloro-1-[4-(6-methoxy-pyridin-2-yl)-cyclohexyl]-5-methyl-5,6-dihydro-4H-2,3,5,10b-tetraaza-benzo[e]azulene]  3.31 nM
8. CC(C)c1cccc([C@H]2CC[C@H](c3nnc4n3-c3ccc(Cl)cc3CN(C(=O)OC(C)(C)C)C4)CC2)n1 [Example 10, trans-8-Chloro-1-[4-(6-isopropyl-pyridin-2-yl)-cyclohexyl]-4H,6H-2,3,5,10b-tetraaza-benzo[e]azulene-5-carboxylic acid tert-butyl ester]  2.19 nM
9. CC(C)(C)OC(=O)N1Cc2cc(Cl)ccc2-n2c(nnc2[C@H]2CC[C@H](c3ncccn3)CC2)C1 [Example 57, trans-8-Chloro-1-(4-pyrimidin-2-yl-cyclohexyl)-4H,6H-2,3,5,10b-tetraaza-benzo[e]azulene-5-carboxylic acid tert-butyl ester]  1.58 nM
10. Cc1cncc([C@H]2CC[C@H](c3nnc4n3-c3ccc(Cl)cc3CN(C(=O)OC(C)(C)C)C4)CC2)n1 [Example 72, trans-8-Chloro-1-[4-(6-methyl-pyrazin-2-yl)-cyclohexyl]-4H,6H-2,3,5,10b-tetraaza-benzo[e]azulene-5-carboxylic acid tert-butyl ester]  1.2 nM
11. COCCN1Cc2cc(Cl)ccc2-n2c(nnc2[C@H]2CC[C@H](c3ncccc3F)CC2)C1 [Example 35, trans-8-Chloro-1-[4-(3-fluoro-pyridin-2-yl)-cyclohexyl]-5-(2-methoxy-ethyl)-5,6-dihydro-4H-2,3,5,10b-tetraaza-benzo[e]azulene]  0.977 nM
12. CCN1Cc2cc(Cl)ccc2-n2c(nnc2[C@H]2CC[C@H](c3ncccc3F)CC2)C1 [Example 31, trans-8-Chloro-5-ethyl-[4-(3-fluoro-pyridin-2-yl)-cyclohexyl]-5,6-dihydro-4H-2,3,5,10b-tetraaza-benzo[e]azulene]  0.562 nM
13. CN1Cc2cc(Cl)ccc2-n2c(nnc2[C@H]2CC[C@H](c3ncccc3Cl)CC2)C1 [Example 84, trans-8-Chloro-1-[4-(3-chloro-pyridin-2-yl)-cyclohexyl]-5-methyl-5,6-dihydro-4H-2,3,5,10b-tetraaza-benzo[e]azulene]  0.501 nM
